Data taken from patent US5688767A, “Treatment of endotoxin-associated disorders with cationic peptides” (priority 1996, dated 1997).
≈ marks a conversion by molar mass, not a printed value.

Assays:
[1] = Lethality of peptide alone in mice; format: in vivo
[2] = test system: S. typhimurium; experiment: microbe, parasite or virus in culture; format: cell-based, Salmonella typhimurium
Experimental: The minimum inhibitory concentrations of (MIC) of CEME, CEMA and melittin were determined for a number of different bacteria (Table 2). Briefly, cells were grown overnight at 37° C. in LB-S (Luria broth without any salt supplement) and diluted one in 10,000 in the same medium to give concentrations of about 10^4 to 10^5 CFU/ml. The broth dilutions were set up in a 96 well microtiter plate by putting 200 μl of LB-S containing the initial concentration of antibiotic or compound in column 1 and 100 μl of the same medium in columns 2-12. The compounds were diluted by taking 100 μl of broth from column 1 and mixing it with column 2, resulting in a one in two dilution. This was continued to column 10. Finally, 10 μl of bacteria were pipetted into columns 1-11, and the plates incubated overnight at 37° C. The next day the plates were scored for growth in the wells, and the MIC determined.
Bacteria included the Bort strain of E. coli (Bortolussi, et al., Inf. Immun., 25:293, 1979) that was originally derived from a case of neonatal meningitis, and which is therefore considered a relevant pathogenic strain to study, and the 0111:B4 strain of E. coli (kindly provided by Dr. D. Morrison) which is a standard source of endotoxin. (Kelly, et al., Inf. Immun., 59:4491, 1991). In addition, P. aeruginosa PA01 strain H103, P. aeruginosa M2, P. aeruginosa K799, Eschericha coli UB 1005, Enterobacter cloacae 218S, Salmonella typhimurium MS7953s, Klebsiella pneumoniae ATCC 13883, Xanthomonas maltophilia ATCC 13637, and Acinetobacter calcoacetious 8193 were employed. LPS was obtained from E. coli Bort by the technique of Westphal and Jann, (Westphal, et al., Acad. Press, Inc. NY., 5:83) and from P. aeruginosa H103 by the method of Darveau and Hancock, (Darveau, et al., J. Bacteriol, 155:831, […]). E. coli 0111:B4 LPS was purchased from Sigma.

[3] = test system: LPS-induced endotoxemia; experiment: Protection from lethal LPS endotoxicity in galactosamine-sensitized mouse endotoxic shock model; format: in vivo, mice; settings: for % Mortality / dead/total: LPS 10 ug
Experimental: The ability of CEME and CEMA to protect against LPS-induced endotoxemia was assessed in vivo. Mice (8-10 weeks old) were injected intraperitoneally with […] D-galactosamine (Dgal) to sensitize them to LPS according to the mode of Galanos (Galanos, et al., Proc. Natl. Acad. Sci., USA, 76:5939-5943, 1979), followed by 0, 50, 100, or 200 μg CEME or CEMA in 100 μl. Immediately afterwards LPS (10 or 20 μg) in 100 μl was injected.
Mice are naturally resistant to LPS. […] Endotoxic shock was induced by intraperitoneal injection of 10 or 20 μg of E. coli 0111:B4 LPS in phosphate-buffered saline (PBS), pH 7.2 into galactosamine-sensitized 8-10 week old female CD-1 mice (Galanos, C., supra; Freudenberg, M. A., Inf. Immun., 51:891, 1986). In experiments involving peptides, 50-200 μg in 100 μl sterile water injected at separate intraperitoneal sites immediately before or after LPS injection. In survival experiments, survival was monitored at 24 to 48 hours post injection. In experiments measuring TNF, blood was withdrawn by cardiac puncture at timed intervals up to 8 hours after the injections and allowed to clot prior to measurement of TNF in the serum.
In contrast when CEMA was injected at around the same time as LPS, but at separate site in the peritoneum, it protected mice in a dose dependant fashion (FIG. 17). Endotoxemia was induced with 10 μg of E. coli 0111:B4 LPS injected into the peritoneum. Subsequently 50, 100, or 200 μg (2.2, 4.4, and 8.7 mg/kg) of CEME or CEMA was injected into a separate site in the peritoneum. […] mice were assessed for each experimental point. Mortality was observed after 24 hrs.

[4] = test system: P. aeruginosa strain M2; experiment: Survival of neutropenic mice challenged intraperitoneally with bacteria; format: in vivo, Pseudomonas aeruginosa
Experimental: To measure the anti-bacterial effect of peptides, a similar strategy was employed. Female CD-1 mice were rendered neutropenic with 3 injections of cyclophosphamide as described previously. (Cryz, S. J., Inf. Immun., 39(2): 1067, 1983) An […] dose of Pseudomonas aeruginosa strain M2 (approximately 10^2 organisms per mouse) was injected intra peritoneally and in the single dose experiments, 100 μl of PBS or sterile water containing 200 μg (8.7 mg/kg) of a cationic peptide was injected immediately afterwards. […] Survival was recorded at 24 and 48 hours.

[5] = single dose 200 μg (8.7 mg/kg) i.p.
[6] = two injections at 2 hours and 12 hour after P. aeruginosa

## CC[C@H](C)[C@H](NC(=O)CNC(=O)[C@@H](NC(=O)[C@H](CCCCN)NC(=O)[C@H](CCCCN)NC(=O)[C@H](Cc1ccccc1)NC(=O)[C@H](CC(C)C)NC(=O)[C@H](CCCCN)NC(=O)[C@H](Cc1c[nH]c2ccccc12)NC(=O)[C@@H](N)CCCCN)[C@@H](C)CC)C(=O)NCC(=O)N[C@@H](C)C(=O)N[C@H](C(=O)N[C@@H](CC(C)C)C(=O)N[C@@H](CCCCN)C(=O)N[C@H](C(=O)N[C@@H](CC(C)C)C(=O)N[C@H](C(=O)N[C@H](C(=O)NCC(=O)N[C@@H](CC(C)C)C(=O)N1CCC[C@H]1C(=O)N[C@@H](C)C(=O)N[C@@H](CC(C)C)C(=O)N[C@@H](CCCCN)C(=O)N[C@@H](CC(C)C)C(=O)N[C@H](C(=O)N[C@@H](CCCCN)C(=O)O)[C@@H](C)O)[C@@H](C)O)[C@@H](C)O)C(C)C)C(C)C [CEMA]
[1]; 200 μg (8.7 mg/kg) alone
  survival of mice given peptide alone: survived
[1]; no LPS, peptide 200 ug
  % Mortality: 0%
  dead/total: 0/5
[2]; Salmonella typhimurium MS7953s
  MIC: 4 µg/mL (≈ 1.3 µM)
[2]; strain C587, Parent of C590
  MIC: 5.6 µg/mL (≈ 1.83 µM)
[2]; strain C590, Defensin sensitive
  MIC: 1.4 µg/mL (≈ 0.457 µM)
[3]; 10 μg E. coli 0111:B4 LPS, peptide 50 μg
  survival: 60%
[3]; 10 μg E. coli 0111:B4 LPS, peptide 100 μg
  survival: 75%
[3]; 10 μg E. coli 0111:B4 LPS, peptide 200 μg (8.7 mg/kg)
  survival / mice protected: 78%
[3]; peptide 50 ug
  % Mortality: 40%
  dead/total: 2/5
[3]; peptide 100 ug
  % Mortality: 25%
  dead/total: 2/8
[3]; peptide 200 ug
  % Mortality: 22%
  dead/total: 2/9
[4]; [5]
  Survival (%): 43.3%
  Survival (survivors/total): 13/30
[4]; [6]
  Survival (%): 55.0%
  Survival (survivors/total): 11/20
